# Reference: US20240368134A1, “AROMATIC COMPOUND, PHARMACEUTICAL COMPOSITION, AND APPLICATION THEREOF” (SHANGHAI KYGENT PHARMACEUTICAL CO., LTD, priority 2021, published 2024)
# Read-outs that look alike come from different tables or passages of the source.
# How the values were obtained:
# MSTO-211H cells = test: Tumor cell proliferation inhibition experiment (Cell Titer Glo), MSTO-211H; assay type: cell-based; settings: MSTO-211H lung cancer cells, three days incubation
# Description: (§1) Cell Titer Glo luminescent cell viability assay kit was used to quantify the ATP content in cells, so as to quantify the number of viable cells. […] On the second day, the compound was added to the 96-well plate after a three-fold serial dilution to eight concentrations, and incubated at 37° C. for three days in the 5% carbon dioxide incubator. The culture medium was treated with the addition of Cell Titer Glo luminescent cell viability assay kit (Promega G7570) reagent, incubated for 10 minutes, and then placed in Envision (Pelkin Elmer) to read the luminescence signal. DMSO was used instead of the compound as a control to calculate the inhibition rate (inhibition rate %=(1−compound signal/DMSO signal)*100), and then standard four parameter curve fitting was used to calculate the inhibitory activity IC50.
# [1] = Pharmacokinetic evaluation experiment in mice (IV and PO); assay type: in vivo; settings: male ICR mice; for Vd: read-out: Vss
# Description: 120 healthy adult male ICR mice were selected and divided into 20 groups according to the principle of similar body weight, with 6 mice in each group of IV (10 groups) and 6 mice in each group of PO (10 groups). An appropriate amount of sample was weighed, sequentially added with an appropriate amount of DMA, Solutol, and Saline according to the volume ratio of 10:10:80, and stirred and sonicated to achieve a clarification of 1 mg/mL. After overnight fasting, mice in the IV group were intravenously administered with a volume of 5 mL/kg and a dose of 5 mg/kg, respectively; and mice in the PO group were intragastrically administered with a volume of 30 mL/kg and a dose of 30 mg/kg, respectively. Interleaved sampling was performed on every 6 mice after administration of the test compound. In the IV group, approximately 30 μL of blood was collected at 0.0833, 0.25, 0.5, 1, 2, 4, 6, 8, and 24 hours, and placed in a commercial anticoagulant tube pre-filled with EDTA-K2. In the PO group, approximately 30 μL of blood was collected at 0.25, 0.5, 1, 2, 4, 6, 8, and 24 hours, and placed in the commercial anticoagulant tube pre-filled with EDTA-K2. The tubes were centrifuged for 15 minutes to separate the plasma, and the plasma was stored at −80° C. Animals were allowed to eat 2 hours after administration. The content of the test compound in the plasma of mice after intravenous and intragastric administration was determined by LC/MS/MS method. The linear range of the method was 1.00 to 1000 ng/mL: plasma samples were analyzed after protein precipitation.
# NCI-H2052 cells = test: Tumor cell proliferation inhibition experiment (Cell Titer Glo), NCI-H2052; assay type: cell-based; settings: NCI-H2052 lung cancer cells, three days incubation
# Description: as §1
# [2] = mouse, plasma, PO 30 mg/kg vs IV 5 mg/kg
# [3] = mouse, IV 5 mg/kg, plasma, read-out: AUC
# [4] = mouse, PO 30 mg/kg, plasma, read-out: AUC
# [5] = mouse, PO 30 mg/kg, plasma, read-out: Cmax
# [6] = mouse, PO 30 mg/kg, plasma, read-out: Tmax
SMILES,"IC50 (MSTO-211H cells; Homo sapiens, 72 h) [nM]","bioavailability [1, 2] [%]","clearance ([1]; mouse, IV 5 mg/kg, plasma) [mL/min/kg]","half-life ([1]; mouse, IV 5 mg/kg, plasma) [h]","AUC [1, 3] [ng·h/mL]","Vd ([1]; mouse, IV 5 mg/kg, plasma) [L/kg]","AUC [1, 4] [ng·h/mL]","Cmax [1, 5] [ng/mL]","Tmax [1, 6] [h]","IC50 (NCI-H2052 cells; Homo sapiens, 72 h) [nM]",IC50 (MSTO-211H cells) [nM],"AUC ([1]; IV 5 mg/kg, plasma) [ng·h/mL]","CL ([1]; IV 5 mg/kg, plasma) [mL/min/kg]","T1/2 ([1]; IV 5 mg/kg, plasma) [h]","Vss ([1]; IV 5 mg/kg, plasma) [L/kg]",F % ([1]; PO 30 mg/kg vs IV 5 mg/kg) [%],"AUC ([1]; PO 30 mg/kg, plasma) [ng·h/mL]","Cmax ([1]; PO 30 mg/kg, plasma) [ng/mL]","Tmax ([1]; PO 30 mg/kg, plasma) [h]",IC50 (NCI-H2052 cells) [nM]
CNC(=O)c1cc2c(c(F)c1-c1c(Cl)c(F)cc3c1C[C@](c1ccccc1)([C@@H]1CC4(CC4)CN1)O3)C1CC1O2 (stereo partly shown) [Compound 16a],1730,40.3,56.4,2.28,1480,11.4,3570,434,2,1850,–,–,–,–,–,–,–,–,–,–
CNC(=O)c1cc2c(c(F)c1-c1c(Cl)c(F)cc3c1C[C@](c1ccccc1)([C@@H]1CC4(CC4)CN1)O3)OC1CC21 (stereo partly shown) [Compound 18a],690,27.9,107,1.59,804,12.2,1680,199,0.8,730,–,–,–,–,–,–,–,–,–,–
CNC(=O)c1cc2c(c(F)c1-c1c(Cl)c(F)cc3c1C[C@@](CN[C@H]1CC[C@](C)(O)CC1)(c1ccccc1)O3)C1CC1O2 (stereo partly shown) [Compound 14a],–,–,–,–,–,–,–,–,–,–,320,3462,24.1,2.35,4.34,102.1,21209,2697,2.00,360
CNC(=O)c1cc2c(c(F)c1-c1c(Cl)c(F)cc3c1C[C@](c1ccccc1)([C@@H]1CCCN1)O3)C1CC1O2 (stereo partly shown) [Compound 2a],414,95.4,86.3,3.82,750,28,4300,474,4,928,–,–,–,–,–,–,–,–,–,–

# More lines, now with the values ahead:
"IC50 (MSTO-211H cells; Homo sapiens, 72 h) [nM]","bioavailability [1, 2] [%]","clearance ([1]; mouse, IV 5 mg/kg, plasma) [mL/min/kg]","half-life ([1]; mouse, IV 5 mg/kg, plasma) [h]","AUC [1, 3] [ng·h/mL]","Vd ([1]; mouse, IV 5 mg/kg, plasma) [L/kg]","AUC [1, 4] [ng·h/mL]","Cmax [1, 5] [ng/mL]","Tmax [1, 6] [h]","IC50 (NCI-H2052 cells; Homo sapiens, 72 h) [nM]",IC50 (MSTO-211H cells) [nM],"AUC ([1]; IV 5 mg/kg, plasma) [ng·h/mL]","CL ([1]; IV 5 mg/kg, plasma) [mL/min/kg]","T1/2 ([1]; IV 5 mg/kg, plasma) [h]","Vss ([1]; IV 5 mg/kg, plasma) [L/kg]",F % ([1]; PO 30 mg/kg vs IV 5 mg/kg) [%],"AUC ([1]; PO 30 mg/kg, plasma) [ng·h/mL]","Cmax ([1]; PO 30 mg/kg, plasma) [ng/mL]","Tmax ([1]; PO 30 mg/kg, plasma) [h]",IC50 (NCI-H2052 cells) [nM],SMILES
236,17.3,50.4,1.11,1650,2.42,1710,603,0.5,328,–,–,–,–,–,–,–,–,–,–,CNC(=O)c1cnc(OCCO)c(F)c1-c1c(Cl)c(F)cc2c1C[C@](c1ccccc1)([C@@H]1CC3(CC3)CN1)O2 [Compound 10a]
200,44.6,17.9,3.52,2790,4.44,7470,928,1,250,–,–,–,–,–,–,–,–,–,–,CNC(=O)c1cc2c(c(F)c1-c1c(Cl)c(F)cc3c1C[C@](c1ccccc1)([C@@H]1CCCN1)O3)CCC2 [Compound 31a]
200,108,41.4,2.23,2010,8.5,13100,2050,2,210,–,–,–,–,–,–,–,–,–,–,CNC(=O)c1cc2c(c(F)c1-c1c(Cl)c(F)cc3c1C[C@@](CN[C@H]1CC[C@H](O)CC1)(c1ccccc1)O3)C1CC1O2 (stereo partly shown) [Compound 13a]
190,61.8,36.5,2.19,2280,5.32,8460,1270,2,420,–,–,–,–,–,–,–,–,–,–,CNC(=O)c1cc2c(c(F)c1-c1c(Cl)c(F)cc3c1C[C@](c1ccccc1)([C@@H]1CCCN1)O3)CCC2O (stereo partly shown) [Compound 41a]
150,14.4,44.2,4.18,1880,6.94,1620,301,0.5,160,–,–,–,–,–,–,–,–,–,–,NC(=O)c1cc2c(c(F)c1-c1c(Cl)c(F)cc3c1C[C@](c1ccccc1)([C@@H]1CCCN1)O3)CCC2O (stereo partly shown) [Compound 53a]
80,52.2,75.8,1.79,1100,11.7,3450,424,1.33,90,–,–,–,–,–,–,–,–,–,–,CNC(=O)c1cc2c(c(F)c1-c1c(Cl)c(F)cc3c1C[C@](c1ccccc1)([C@@H]1CCCN1)O3)OC1CC21 (stereo partly shown) [Compound 17a]
